From the METLIN SMRT retention time set (Domingo-Almenara et al. 2019)

Test: gradient 5% acetonitrile 3 min, to 50% in 2 min, to 85% in 15 min, held 3 min, 100 µL/min
Conditions: column: Zorbax Extend-C18 2.1 x 50 mm; eluents: water / acetonitrile, 0.1% formic acid
Method in brief: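 Pure standards were run in mixtures of ~100 molecules by HPLC coupled to a quadrupole time-of-flight mass spectrometer. The column was a Zorbax Extend-C18 (2.1 × 50 mm, 1.8 μm) at 100 μL/min, with water and acetonitrile each containing 0.1% formic acid, in positive and negative ionization mode. Dead and dwell volumes were 40 μL and 900 μL. Retention time was taken from computationally picked adduct peaks, each manually inspected, with data collected over 3 months.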

Row | RP-LC retention time | Structure (SMILES)
1 | 652 s | O=C(c1ccccc1-c1ocnc1C(=O)N1CCOCC1)N1CCCCC1
2 | 784 s | CSc1ccc(-c2nc3cnccn3c2Nc2cccc(C(=O)NC(C)C)c2)cc1
3 | 616 s | Cc1oc(-c2[nH]ncc2C(=O)N2CCOCC2)cc1S(=O)(=O)N1CCCC1
4 | 834 s | CC(C(=O)N1CCN(C(=O)c2ccco2)CC1)n1c(=O)c(C(F)(F)F)nc2ccccc21 (configuration not stated)
5 | 732 s | CCc1noc([C@@H]2CC(F)(F)CN2C(=O)c2coc(C)n2)n1
6 | 567 s | Cc1cc(C)c2c(N3CCSCC3)nc(C(=O)NCc3ccccn3)nc2n1
7 | 835 s | CCn1ccc2sc(C)c(C(=O)NCc3cc(F)ccc3F)c2c1=O
8 | 725 s | O=C(NCCn1c(=O)n(Cc2ccccc2)c2cccnc21)c1ccco1
9 | 941 s | Cc1nc(N2CCN(C(=O)c3ccccc3)CC2)c(C#N)c2c1COC(C)(C)C2
10 | 875 s | COC(=O)C1=CN(c2ccc(OC)cc2OC)c2cc(F)ccc2S1(=O)=O
11 | 747 s | Cc1nc(-c2ccc(F)cc2)sc1C(=O)N1CCC(C(C)C(=O)NC2CC2)CC1 (configuration not stated)
12 | 775 s | O=C(Nc1cccc2nsnc12)C1CCN(S(=O)(=O)N2CCOCC2)CC1
13 | 572 s | CCN(Cc1ccc(OC)cc1)Cc1cc(=O)n2cc(C)ccc2n1
14 | 634 s | COc1ccc(Cl)c2c(=O)c3c([nH]c12)CCN(CC(=O)Nc1ccc(F)c(F)c1)C3
15 | 794 s | CC(C)(Oc1ccc(Cl)cc1)C(=O)Nc1ccc(-c2cn3cccnc3n2)cc1
16 | 771 s | O=C(NCc1ccco1)C1CCCN(S(=O)(=O)c2c[nH]c(C(=O)N3CCCCCC3)c2)C1 (configuration not stated)
17 | 762 s | COC(=O)c1ncn2c1C(=O)N(Cc1ccccc1Cl)C(C)(C(=O)NCc1ccccc1)C2 (configuration not stated)
18 | 595 s | O=C(NCCCN1CCCC1)c1c2c(nc3ccccc13)C(=O)N(C1CCCCC1)C2
19 | 819 s | O=C(Cn1c2ccccc2c2ncn(Cc3nc(C4CC4)no3)c(=O)c21)NC1CCCC1
20 | 772 s | O=C(c1ccc2c(c1)OCO2)N1CCN(c2cc(-c3ccc(F)cc3)[nH]n2)CC1
21 | 615 s | Cn1ncc2c3ccccc3n(CC(=O)NCCCN3CCCC3=O)c2c1=O
22 | 855 s | CNC(=O)c1cc(Oc2ccc(NC(=O)Nc3cc(C(C)(C)C)nn3-c3ccc4ncccc4c3)c(F)c2)ccn1

Row | RP-LC retention time | Structure (SMILES)
23 | 566 s | Cc1nc([C@@H]2CN(S(=O)(=O)C(C)C)C[C@H]2C(N)=O)n[nH]1
24 | 1170 s | COc1nc2ccccc2nc1N1CCCC(C(=O)Nc2cccc(F)c2)C1 (configuration not stated)
25 | 524 s | CC(C)n1cc(CN2CCC3(CC2)CN(Cc2ccccc2)CC3CO)cn1 (configuration not stated)
26 | 1060 s | O=C1COc2ccccc2N1Cc1nc(-c2cccc(Cl)c2)no1
27 | 681 s | CN(CC1CCOC1)C(=O)c1ccccc1Cl (configuration not stated)
28 | 753 s | Cn1cnc(S(=O)(=O)N2CCC(C(=O)Nc3cccc(Cl)c3)CC2)c1
29 | 726 s | CNC(=O)C1CN(C(=O)c2cccc(Cl)c2)CC12CCCC2 (configuration not stated)
30 | 801 s | COc1cc(NC(=O)N2CCc3cn(C)c4cccc(c34)C2)cc(OC)c1OC
31 | 737 s | COc1ccccc1C(=O)N1C[C@H](c2nc(-c3ccncc3)no2)[C@@H](C)C1
32 | 938 s | CCN(CC)C(=O)c1cc(C)nc2c1c(=O)n(Cc1ccccc1C)c(=O)n2C
33 | 804 s | Cc1nc2nc(C)c(CCC(=O)N3CCC(Cc4ccccc4)CC3)c(C)n2n1
34 | 767 s | COc1cc(C(=O)NC2CCN(c3cc(-c4ccc(Cl)cc4)[nH]n3)C2)cc(OC)c1OC (configuration not stated)
35 | 641 s | CC(C)CCNC(=O)N1CCC(OC2CCN(Cc3ccccc3)CC2)CC1
36 | 1180 s | CCc1nc2cc(-c3noc(-c4ccc(OC)cc4)n3)ccc2o1
37 | 632 s | CNC(=O)C1CCCN(c2nc3ncn(CC(=O)NC4CCCCC4)c(=O)c3s2)C1 (configuration not stated)
38 | 1050 s | O=C(NC1CCN(Cc2ccccc2)CC1)C1CCCN(c2ncnc3c2nc2n3CCCCC2)C1 (configuration not stated)
39 | 949 s | CN(C)C(=O)c1csc(N2CCN(c3cccc(Cl)c3)CC2)n1
40 | 598 s | CCN(CC)CCCNC(=O)C1CCCN(c2nnc(C)c3c(C)n(-c4ccc(Cl)cc4)nc23)C1 (configuration not stated)
41 | 1060 s | O=C(OCc1cc(-c2cccs2)on1)c1ncc(-c2ccccc2)o1
42 | 610 s | COc1cc(C(=O)NCC(c2ccc3c(c2)OCO3)N2CCN(C)CC2)cc(OC)c1OC (configuration not stated)
43 | 919 s | CCS(=O)(=O)N1CC(=O)N(c2ccc(C)c(Cl)c2)C(C)(C(=O)NCc2ccccc2)C1 (configuration not stated)
44 | 853 s | NC(=O)c1ccccc1NC(=O)Cc1cn(Cc2ccccc2)c2ccccc12

Row | RP-LC retention time | Structure (SMILES)
45 | 1120 s | O=C(Cc1cccs1)N1CCc2cc(-c3csc(C4CC4)n3)ccc21
46 | 1160 s | O=S(=O)(NCc1ccc(F)cc1)c1ccccc1-c1nc(-c2ccccc2)no1
47 | 610 s | CCN(C(=O)c1nc(C)n(C2CCN(S(C)(=O)=O)CC2)c1C)c1ccccc1
48 | 969 s | Cc1ccc(NC(=O)Cn2cc3c(n2)CCC(C)C3)cc1C (configuration not stated)
49 | 826 s | COCCNC(=O)C1CCN(c2nccnc2Sc2cccc(C)c2)CC1
50 | 654 s | Cn1cnc2c(C(=O)N3CCN(C4CCCCC4)CC3)nn(-c3ccc(Cl)cc3)c2c1=O
51 | 663 s | COc1ccc(NC(=O)C2CCc3sc(C(=O)N(C)C)cc3C2)cc1 (configuration not stated)
52 | 916 s | CCN1C(=O)C(C)(C(=O)NCc2ccc(Br)cc2)Oc2cccnc21 (configuration not stated)
53 | 1240 s | CCOc1ccc(CNC(=O)c2cc3c(-c4cccs4)nn(-c4ccccc4)c3n2CC)cc1
54 | 988 s | Cc1ccc(S(=O)(=O)N2CCC(n3cnc4ccc(C)cc4c3=O)CC2)c(C)c1
55 | 700 s | CCCNC(=O)C1CCCN(c2ccc(SCC(=O)NCc3ccc(C(F)(F)F)cc3)nn2)C1 (configuration not stated)
56 | 1060 s | Cc1c(-c2noc(-c3ccc(F)cc3)n2)nnn1-c1ccc(F)cc1
57 | 922 s | CCC(C)NC(=O)c1nc(Cn2c(=O)oc3ccc(Cl)cc32)no1 (configuration not stated)
58 | 1000 s | CCCN(C(=O)C1CCCN(c2ncnc3c2nc2n3CCCCC2)C1)c1ccccc1C (configuration not stated)
59 | 905 s | COc1ccc(-c2nc(-c3cccc(-c4ccn[nH]4)c3)no2)cc1OC
60 | 715 s | CC1(C(=O)Nc2ccc(F)c(F)c2)CCCCC(=O)N1 (configuration not stated)
61 | 656 s | O=C(NCCNC(=O)[C@@H]1CCCN1C(=O)c1ccc(F)cc1)c1ccc(F)cc1
62 | 986 s | O=S1(=O)C[C@H](N2CCN(c3ccccc3F)CC2)[C@@H](S(=O)(=O)c2ccc(Cl)cc2)C1
63 | 599 s | c1cc(-c2nc(-c3ccc4c(c3)nnn4CCN3CCCCC3)no2)ccn1
64 | 1090 s | CCN1C(=O)COc2ccc(-c3noc(C(C)Oc4ccccc4)n3)cc21 (configuration not stated)
65 | 1000 s | O=C(CN1C(=O)C2CCCCN2c2ccc(S(=O)(=O)N3CCCC3)cc21)NC1CCCCCC1 (configuration not stated)
66 | 651 s | COC1CCN(CC2CCCCCN2C(=O)Nc2ccc3c(c2)OCCO3)CC1 (configuration not stated)

Row | RP-LC retention time | Structure (SMILES)
67 | 1170 s | CCOc1ccc(-n2c(=O)c3sccc3n(Cc3nc(-c4ccc(CC)cc4)no3)c2=O)cc1
68 | 656 s | O=C1CCCCC(Cc2ccccc2)(C(=O)NC2CCS(=O)(=O)C2)N1 (configuration not stated)
69 | 693 s | COc1ccc(NC(=O)C2CCN(S(=O)(=O)c3c(C)[nH]c(C)c3C(=O)N3CCCC3)CC2)cc1
70 | 718 s | CCc1csc(-c2ccc(S(=O)(=O)NCCN3CCC(C)CC3)s2)n1
71 | 778 s | Cc1cccc(CC(=O)N2C[C@@H]3C[C@H]2C[C@@H]3NC(=O)c2cccs2)c1
72 | 822 s | CCOc1ccc(CC(=O)N2CCCC2c2cc(C)on2)cc1 (configuration not stated)
73 | 785 s | O=C(NCc1cc(-c2ccc3c(c2)OCO3)on1)c1c(F)cccc1Cl
74 | 847 s | Cc1nc(-c2csc(S(=O)(=O)N3CCCC(C(=O)NCc4cccs4)C3)c2)no1 (configuration not stated)
75 | 930 s | CCOC(=O)c1ccc(N2C=C(C#N)S(=O)(=O)c3c(F)cccc32)cc1
76 | 875 s | COCCn1nc(N2CCCC(NS(=O)(=O)c3c(C)c(C)cc(C)c3C)C2)ccc1=O (configuration not stated)
77 | 887 s | CC1(C(=O)NCc2ccc(F)cc2)CCCN(C(=O)Nc2ccc(F)cc2)C1 (configuration not stated)
78 | 566 s | CN(C)c1ccc2c(c1)CN(C(=O)c1cnccn1)CCO2
79 | 654 s | CC(C)N1CCN(C(=O)C2=NN(c3ccc(Cl)cc3)c3ncccc3S2(=O)=O)CC1
80 | 614 s | CCCN1CCN(C(=O)c2cc3n(n2)CC(C)(C(=O)NC2CCCCCC2)N(C)C3=O)CC1 (configuration not stated)
81 | 902 s | CCN(CC)C(=O)c1sc(-c2cn(C(C)C)c3ncccc23)nc1C
82 | 839 s | CC(=O)c1cccc(NS(=O)(=O)c2ccc(F)c(Cl)c2)c1
83 | 942 s | O=c1n(Cc2ccccc2)nc2c(S(=O)(=O)N3CCc4ccccc4C3)cccn12
84 | 1240 s | CCCn1c(=O)c(C)nc2cc(-c3noc(-c4sccc4C)n3)ccc21
85 | 717 s | CC(=O)N1CCc2cc(N3CC(C(=O)Nc4ccc(C)cc4F)CC3=O)ccc21 (configuration not stated)
86 | 733 s | CCN1C(=O)C2(C(C#N)=C(N)Oc3n[nH]c(-c4ccccc4)c32)c2ccccc21 (configuration not stated)
87 | 882 s | CCCN1C(=O)CCc2cc(NC(=O)c3cc4ccccc4[nH]3)ccc21
